Like-named read-outs stand apart in the source and are kept apart here.

The subject of experiment [1] is MCP-1 production in primary murine microglial cells. In words: MCP-1 ELISA, primary mouse microglia after CSF-1 stimulation. The class given is cell-based. Conditions: primary murine microglia, 100 ng/mL CSF-1 24 hours. The method, then:
Primary mouse microglia were suspended at a concentration of 5×10^5 cells/mL and 100 μL of this cell suspension was added to the inner 60 wells of three 96-well plates. Microglia cells were allowed to rest overnight at 37° C., 5% CO2. […] Cells were then stimulated with 100 ng/mL recombinant mouse CSF-1 for 24 hours. After stimulation, the culture supernatant was removed from each well and aliquoted into two different 96-well plates for subsequent ELISA assays. Plates were fixed with 4% PFA for future immunocytochemistry analysis.
For orientation: An ELISA detects its analyte on a solid surface through an enzyme-linked reagent.

For another experiment, the system named is primary murine microglia. In words: Immunostaining of primary microglia (Iba1+ area, DAPI+ nuclei) after CSF-1 stimulation. The class given is cell-based, mouse. Conditions: for IC50: primary murine microglia, CSF-1 stimulation. The method, then:
Primary mouse microglia were suspended at a concentration of 5×10^5 cells/mL and 100 μL of this cell suspension was added to the inner 60 wells of three 96-well plates. Microglia cells were allowed to rest overnight at 37° C., 5% CO2. […] Cells were then stimulated with 100 ng/mL recombinant mouse CSF-1 for 24 hours. After stimulation, the culture supernatant was removed from each well and aliquoted into two different 96-well plates for subsequent ELISA assays. Plates were fixed with 4% PFA for future immunocytochemistry analysis. Following the stimulation, cells were fixed with 4% PFA for 20 minutes at room temperature. Cells were then rinsed in PBS, washed 3×5 minutes in 0.2% PBT (0.2% Triton X-100 in PBS) and blocked with 10% donkey serum/0.2% PBT for 1 hour at room temperature. […] After staining, plates were imaged on the IN Cell Analyzer 2200 with 9 fields of view acquired per well. […] A one-way ANOVA was used to determine the statistical significance of differences between samples. […] Following a microglial stimulation, immunocytochemistry was completed with Iba1, Ki67, and DAPI to determine microglial morphology, proliferative state, and number. InCell imaging microsope and analysis software was used to quantify Iba1^+ area, and the number of DAPI^+ nuclei within the cultures.

By IC50 is commonly meant the concentration that inhibits the measured activity by half. Take `FC(F)(F)c1ccc(CNc2ccc(Cc3c[nH]c4ncc(Cl)cc34)cn2)cn1` [PLX3397, pexidartinib]: the IC50 was determined as 17.4 nM in experiment [1] (read-out: IC50, MCP-1 production); 68.2 nM in the experiment on primary murine microglia (read-out: IC50 for DAPI (DAPI+ cell number)); 50.4 nM in the experiment with primary murine microglia (read-out: IC50 for Iba1 (Iba1+ area)). In addition, the MCP-1 production entry in experiment [1] (3.125-400 nM) is recorded as “significantly reduced MCP-1 production in a concentration dependent manner”. Besides, the “Iba1+ area” value with primary murine microglia (CSF-1 stimulation increases Iba1+ area) was “significantly abrogated this effect in a concentration dependent manner”. Further, in the experiment on primary murine microglia (CSF-1 stimulation increases cell number), the “number of cells (DAPI+ cells)” value is given as “reduce this number in a concentration dependent manner”.

The record behind these values is patent US11530216B2, “Deuterated colony stimulating factor-1 receptor (CSF-1R) inhibitors” (Genzyme Corporation, priority 2020, dated 2022).
